In this assay the test system is Hela Cells. In words: Cellular ER stress model (tunicamycin, WST-8 cell viability). The note with it: Homo sapiens, HeLa, 48 h.
Where [1] appears, read: read-out: % Cell Survival Cmpd(2.5 μM) + Tuni.
Setting [2] is: read-out: Compounds ERS (vs Tn).
The mark [3] stands for this setting: read-out: % Cell Survival Cmpd(2.5 μM) + Tuni, Hela cells, compound 2.5 μM + tunicamycin, WST-8 viability 48 hours after tunicamycin treatment.
The mark [4] stands for this setting: read-out: Compounds ERS (vs Tn), ERS activity vs Tuni = % cell survival (compound)/% cell survival (tunicamycin), compound 2.5 μM.

This is an account of results in US12006294B2, “Therapeutic compounds” (REGENTS OF THE UNIVERSITY OF MINNESOTA, priority 2017, dated 2024).

Molecules are shown by their SMILES. Counter-ions that a name gives are not always drawn. Like-named read-outs stand apart in the source and are kept apart here.

With `N=C(N)N/N=C/c1c(O)cccc1Cl` [BC2-59-2], the viability at 2.5 µM runs as follows: under setting [1], 39%; under setting [2], 94%.
`NC(=S)N/N=C/c1c(F)cccc1Cl` [JM1-113-2, (E)-2-(2-chloro-6-fluorobenzylidene)hydrazine-1-carbothioamide]: the viability at 2.5 µM turned out to be 27.6% under setting [3] and 40% under setting [4].
Consider `Cc1cccc(C)c1/C=N/NC(N)=S` [JM1-121-2, (E)-2-(2,6-dimethylbenzylidene)hydrazine-1-carbothioamide], for which the viability at 2.5 µM is 23.4% under setting [3] and 34% under setting [4].
Turning to `NC(=S)N/N=C/c1ccc2ccccc2c1` [JM1-129-2, (E)-2-(naphthalen-2-ylmethylene)hydrazine-1-carbothioamide], the viability at 2.5 µM amounted to 24.1% under setting [3] and 35% under setting [4].
For `N=C(N)N/N=C/c1c(Br)cccc1[N+](=O)[O-]` [JM1-175-2, (E)-2-(2-bromo-6-nitrobenzylidene)hydrazine-1-carboximidamide acetate], in that order: 44.9% and 65%.
The matching figures for `N=C(N)N/N=C/c1cc(F)ccc1Cl` [JM1-185-2, (E)-2-(2-chloro-5-fluorobenzylidene)hydrazine-1-carboximidamide acetate]: 54.4% and 79%.
With `N=C(N)N/N=C/c1c(F)cccc1F` [JM1-191-2, (E)-2-(2,6-difluorobenzylidene)hydrazine-1-carboximidamide acetate], the viability at 2.5 µM under setting [3] is 45.7% and the viability at 2.5 µM under setting [4] was 66%.
Consider `Nc1ccnn1-c1c(Cl)cccc1Cl` [JM1-217-2, 1-(2,6-dichlorophenyl)-1H-pyrazol-5-amine], for which the viability at 2.5 µM was found to be 40.6% under setting [3] and 97% under setting [4].
Consider `N=C(N)N/N=C/c1cc(C(F)(F)F)ccc1Cl` [JM1-221-2, (E)-2-(2-chloro-5-(trifluoromethyl)benzylidene)hydrazine-1-carboximidamide acetate], for which the viability at 2.5 µM runs as follows: under setting [3], 38.6%; under setting [4], 56%.
The matching figures for `N=C(N)N/N=C/c1c(F)cccc1C(F)(F)F` [JM1-223-2, (E)-2-(2-fluoro-6-(trifluoromethyl)benzylidene)hydrazine-1-carboximidamide acetate]: 37.5% and 54%.
The matching figures for `CC/C(=N\NC(=N)N)c1cccc(Cl)c1` [JM1-257-2, (E)-2-(1-(3-chlorophenyl)propylidene)hydrazine-1-carboximidamide]: 34.6% and 50%.
For `N=C(N)Nc1ccnn1-c1c(Cl)cccc1Cl` [JM1-285-2, 1-(1-(2,6-dichlorophenyl)-1H-pyrazol-5-yl)guanidine], in that order: 41.9% and 101%.
For `Cc1cccc(C)c1NC1=NCCN1` [JM2-59-2, N-(2,6-dimethylphenyl)-4,5-dihydro-1H-imidazol-2-amine], the viability at 2.5 µM under setting [1] came to 46.2% and the viability at 2.5 µM under setting [2] was determined as 67%.
As to `COc1cc(Cl)c(/C=N/NC(=N)N)c(Cl)c1` [JM2-63-2, (E)-2-(2,6-dichloro-4-methoxybenzylidene)hydrazine-1-carboximidamide], the viability at 2.5 µM came out at 44.6% under setting [3] and 65% under setting [4].
As to `Clc1cccc(Cl)c1/C=N/NC1=NCCN1` [JM2-83-2, (E)-2-(2-(2,6-dichlorobenzylidene)hydrazinyl)-4,5-dihydro-1H-imidazole hydrochloride], the viability at 2.5 µM under setting [3] was determined as 53.8% and the viability at 2.5 µM under setting [4] is 125%.
The matching figures for `Cc1cccc(C)c1/C=N/NC1=NCCN1` [JM2-85-2, (E)-2-(2-(2,6-dimethylbenzylidene)hydrazinyl)-4,5-dihydro-1H-imidazole hydrochloride]: 62.3% and 145%.
Take `Clc1cccc(Cl)c1CC1=NCCN1` [JM2-87-2, 2-(2,6-dichlorobenzyl)-4,5-dihydro-1H-imidazole]: the viability at 2.5 µM reads like this: under setting [3], 54.3%; under setting [4], 124%.
